Laboratory results reported in patent publication US20080287527A1, “Pharmaceuticals for treating or preventing oral diseases” (HAWLEY & HAZEL (BVI) COMPANY LIMITED, priority 2007, published 2008).

Key:
IL-6 = assay: LUMINEX analysis of IL-6 in KB cell supernatant; type: cell-based, human; conditions: concentration not given
Protocol: (§1) Anti-inflammatory activity was assessed using the KB cell (the epidermis cancer cell in human oral cavity). During the experiment, the KB cell inoculated in the cultivating plate was treated with or without positive control or compound 5-hydroxymorusin. After the treatment, the supernatant of the cultivating medium was collected and stored in −80° C. refrigerators. Inflammation was assessed by measuring several inflammation markers: Prostaglandin E2 (PGE2) in the supernatant was detected by Enzyme-linked immunsorbent assay, and LUMINEX™ multifunctional liquid-phase chip analysis system was used for the detection of granulocyte monocyte colony stimulating factor (GM-CSF), tumor necrosis factor-alpha (TNF-α), and interleukins 1-beta and 6 (IL-1β and IL-6).
(§2) LUMINEX™ multifunctional liquid-phase chip analyses of GM-CSF, TNF-α, IL-1 and IL-6: The 96-well plate was enclosed with enclosing liquid for 30 minutes. Fluorescent microspheres were added into the 96-well plate after dilution. The standard and the samples to be measured were added, and incubated overnight at 4° C. The next day, the supernatant was discarded and 50 μL GM-CSF, TNF-α, IL-1β and IL-6 antibodies were added to each well. After being rinsed for 4 times, the 96-well plate was placed in a shaking table, which was in ambient temperature, to keep the plate away from light for 1 hour. […]

[1] = tested on: Streptococcus mutans (S. m) ATCC 25175; assay: MIC by broth micro-dilution against Streptococcus mutans; type: cell-based; conditions: 37 °C, 18-24 h, no unit in table, dilution series 250-0.12 mg/L (ceiling 250 ppm)
Protocol: (§3) A single colony was picked from the Trypticase Digested Soybean peptone agar blood plate (TSA5B) of ordinarily stored bacteria species and used to inoculate corresponding broth culture medium, which was cultivated in a microaerobic environment (P.g needs anaerobic cultivation) with 95% air, 5% CO2 at 37.0° C.±1.0° C., wherein S.m was cultivated for 18-24 h, and the remaining two species were cultivated for 40-48 h. Then corresponding broth cultivate medium was used to adjust the turbidity of the bacteria suspension to 0.5^# McFarland standard, equivalent to 1.0×10^8 CFU/mL.
(§4) The operating steps were:
(§5) a. Preparation of the stock solution of antibacterial pharmaceutical: 1% stock solution of various antibacterial pharmaceuticals was prepared with 100% pure ethanol as solvent. The prepared stock solution was filtered to eliminate bacteria, and was distributed into small portions to be used.
(§6) b. Range of measured concentration: the present experiment used 250 ppm as the ceiling measured concentration of the anti-bacterial pharmaceutical.
(§7) c. Measuring method: micro-dilution method. […]
(§8) The bacteria to be tested and standard bacteria were prepared as above. […] 0.12 mg/L, and the final inoculation quantity was about […] or 5×10^6 bacteria in each well. […]

[2] = tested on: Porphyromonas gingivalis (P. g) ATCC 33277; assay: MIC by broth micro-dilution against Porphyromonas gingivalis; type: cell-based; conditions: anaerobic, 37 °C, 18-24 h, no unit in table, dilution series 250-0.12 mg/L (ceiling 250 ppm)
Protocol: as §3, §4, §5, §6, §7, §8

GM-CSF = assay: LUMINEX analysis of GM-CSF in KB cell supernatant; type: cell-based, human; conditions: concentration not given
Protocol: as §1, §2

[3] = tested on: Actinomyces viscosus (A. v) ATCC 27044; assay: MIC by broth micro-dilution against Actinomyces viscosus; type: cell-based; conditions: 37 °C, 18-24 h, no unit in table, dilution series 250-0.12 mg/L (ceiling 250 ppm)
Protocol: as §3, with “wherein S.m was cultivated for 18-24 h, and the remaining two species were cultivated for 40-48 h.” left out
as §4, §5, §6, §7, §8

IL-1β = assay: LUMINEX analysis of IL-1β in KB cell supernatant; type: cell-based, human; conditions: concentration not given
Protocol: as §1, §2

TNF-α = assay: LUMINEX analysis of TNF-α in KB cell supernatant; type: cell-based, human; conditions: concentration not given
Protocol: as §1, §2

Oc1cc(Cl)ccc1Oc1ccc(Cl)cc1Cl [Triclosan]
anti-inflammatory effect, IL-6 (the larger the value, the stronger the anti-inflammatory ability) (IL-6): 31% | minimum inhibitive concentration (MIC), S. m ATCC 25175 [1]: 3.9 | minimum inhibitive concentration (MIC), P. g ATCC 33277 [2]: 7.8 | anti-inflammatory effect, GM-CSF (the larger the value, the stronger the anti-inflammatory ability) (GM-CSF): 5% | minimum inhibitive concentration (MIC), A. v ATCC 27044 [3]: 3.9 | anti-inflammatory effect, IL-1β (the larger the value, the stronger the anti-inflammatory ability) (IL-1β): 7% | anti-inflammatory effect, TNF-α (the larger the value, the stronger the anti-inflammatory ability) (TNF-α): 81%
